Reference: ChEMBL document CHEMBL3112436, “Discovery of a novel series of indoline carbamate and indolinylpyrimidine derivatives as potent GPR119 agonists” (Bioorg Med Chem, 2014)
Values after ≈ are worked out from the molar mass of the structure shown.

How the values were obtained:
[1] = target: T1, Glucose-dependent insulinotropic receptor (Homo sapiens, UniProt Q8TDV5); assay: Agonist activity at human GPR119 transfected in CHO cells assessed as cAMP accumulation after 2 hrs by luciferase reporter gene assay; type: functional, cell-based
T1 sequence (Q8TDV5 whole entry): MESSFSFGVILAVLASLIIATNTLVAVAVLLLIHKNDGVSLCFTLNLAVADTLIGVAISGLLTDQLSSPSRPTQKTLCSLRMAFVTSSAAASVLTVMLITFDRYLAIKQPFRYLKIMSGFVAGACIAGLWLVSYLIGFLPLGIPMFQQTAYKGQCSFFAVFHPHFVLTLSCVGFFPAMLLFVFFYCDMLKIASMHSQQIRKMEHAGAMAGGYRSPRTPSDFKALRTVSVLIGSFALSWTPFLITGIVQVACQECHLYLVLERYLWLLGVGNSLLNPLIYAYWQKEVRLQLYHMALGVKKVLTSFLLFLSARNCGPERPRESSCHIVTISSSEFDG

[2] = 1-Octanol-water partition coefficient, log D of the compound at pH 7.4 by HPLC analysis; type: physicochemical
[3] = Aqueous solubility of the compound in buffer at pH 6.8 by HPLC analysis; type: physicochemical
Rattus norvegicus [4] = assay: Antidiabetic activity in Wistar fatty rat type 2 diabetic model assessed as reduction of plasma glucose level at 10 mg/kg, po administered 1 hr prior to glucose challenge by oral glucose tolerance test; type: functional, organism-based; parameters: dose 10 mg/kg; settings: TDE = time-dependent effect
Rattus norvegicus [5] = assay: Antidiabetic activity in Wistar fatty rat type 2 diabetic model assessed as increase in insulin secretion at 10 mg/kg, po administered 1 hr prior to glucose challenge by oral glucose tolerance test; type: functional, organism-based; parameters: dose 10 mg/kg; settings: TDE = time-dependent effect
Rattus norvegicus [6] = assay: Antidiabetic activity in Wistar fatty rat type 2 diabetic model assessed as reduction of plasma glucose level at 30 mg/kg, po administered 1 hr prior to glucose challenge by oral glucose tolerance test; type: functional, organism-based; parameters: dose 30 mg/kg; settings: TDE = time-dependent effect
Rattus norvegicus [7] = assay: Antidiabetic activity in Wistar fatty rat type 2 diabetic model assessed as increase in insulin secretion at 30 mg/kg, po administered 1 hr prior to glucose challenge by oral glucose tolerance test; type: functional, organism-based; parameters: dose 30 mg/kg; settings: TDE = time-dependent effect

## CC(C)OC(=O)N1CCC(Oc2cc(N3CCc4cc(S(C)(=O)=O)ccc43)ncn2)CC1
[1]
  EC50: 17 nM
[2]
  logD: 3.1

## CC(CC1CCN(C(=O)OC(C)(C)C)CC1)OC(=O)N1CCc2cc(S(C)(=O)=O)ccc21 (racemic)
[1]
  EC50: 2600 nM
[2]
  logD: 3.4

## CC(C)(C)OC(=O)N1CCC(CCOC(=O)N2CCc3cc(S(C)(=O)=O)ccc32)CC1
[1]
  EC50: 68 nM
[2]
  logD: 3.1

## CC(C)(C)OC(=O)N1CCC(CCOC(=O)N2CCc3cc(S(C)(=O)=O)cc(Cl)c32)CC1
[1]
  EC50: 21 nM
[2]
  logD: 3.2
[3]
  solubility: 21 µg/mL (≈ 43.1 µM)

## CC(C)OC(=O)N1CCC(Oc2ncnc(N3CCc4cc(S(C)(=O)=O)ccc43)n2)CC1
[1]
  EC50: 520 nM
[2]
  logD: 2.6

## CC(C)OC(=O)N1CCC(Oc2cccc(N3CCc4cc(S(C)(=O)=O)ccc43)c2)CC1
[1]
  EC50: 490 nM
[2]
  logD: 3.5

## CCc1cnc(N2CCC(Oc3cc(N4CCc5cc(S(C)(=O)=O)ccc54)ncn3)CC2)nc1
[1]
  EC50: 11 nM
[2]
  logD: 3.8

## COc1cc2c(cc1S(C)(=O)=O)CCN2C(=O)OCCC1CCN(C(=O)OC(C)(C)C)CC1
[1]
  EC50: 4800 nM
[2]
  logD: 3.3
[3]
  solubility: 45 µg/mL (≈ 93.2 µM)

## CC(COC(=O)N1CCc2cc(S(C)(=O)=O)cc(F)c21)C1CCN(C(=O)OC(C)(C)C)CC1 (racemic)
[1]
  EC50: 6.8 nM
[2]
  logD: 3.3
[3]
  solubility: 21 µg/mL (≈ 43.3 µM)

## Cc1c(S(C)(=O)=O)ccc2c1CCN2C(=O)OCCC1CCN(C(=O)OC(C)(C)C)CC1
[1]
  EC50: 770 nM
[2]
  logD: 3.4
[3]
  solubility: 0.17 µg/mL (≈ 0.364 µM)

## CC(C)(C)OC(=O)N1CCC(CCOC(=O)N2CCc3c2ccc(S(C)(=O)=O)c3F)CC1
[1]
  EC50: 25 nM
[2]
  logD: 3.2
[3]
  solubility: 0.81 µg/mL (≈ 1.72 µM)

## CC(COC(=O)N1CCc2cc(S(C)(=O)=O)ccc21)C1CCN(C(=O)OC(C)(C)C)CC1 (racemic)
[1]
  EC50: 8.4 nM
[2]
  logD: 3.4

## CC(C)(C)OC(=O)N1CCC(CCNC(=O)N2CCc3cc(S(C)(=O)=O)ccc32)CC1
[1]
  EC50: 2500 nM
[2]
  logD: 2.3

## CC(C)(C)OC(=O)N1CCC(CCOC(=O)N2CCc3cc(S(C)(=O)=O)cc(F)c32)CC1
[1]
  EC50: 25 nM
[2]
  logD: 3
[3]
  solubility: 42 µg/mL (≈ 89.3 µM)

## CC(C)(C)OC(=O)N1CCC(CCOC(=O)N2CCc3cc(S(C)(=O)=O)c(F)cc32)CC1
[1]
  EC50: 160 nM
[2]
  logD: 3.3
[3]
  solubility: 0.67 µg/mL (≈ 1.42 µM)

## CC(C)c1noc(N2CCC(Oc3cc(N4CCc5cc(S(C)(=O)=O)ccc54)ncn3)CC2)n1
Rattus norvegicus [4]
  Activity: tde
[1]
  EC50: 7.7 nM
[2]
  logD: 3.1
Rattus norvegicus [5]
  Activity: tde

## COc1cc(S(C)(=O)=O)cc2c1N(C(=O)OCCC1CCN(C(=O)OC(C)(C)C)CC1)CC2
[1]
  EC50: 1700 nM
[2]
  logD: 2.8
[3]
  solubility: 64 µg/mL (≈ 133 µM)

## CC(C)OC(=O)N1CCC(Oc2ccnc(N3CCc4cc(S(C)(=O)=O)ccc43)c2)CC1
[1]
  EC50: 87 nM
[2]
  logD: 3

## Cc1cc(S(C)(=O)=O)cc2c1N(C(=O)OCCC1CCN(C(=O)OC(C)(C)C)CC1)CC2
[1]
  EC50: 44 nM
[2]
  logD: 3.2
[3]
  solubility: 44 µg/mL (≈ 94.3 µM)

## CC(C)(C)OC(=O)N1CCC(CCCCN2CCc3cc(S(C)(=O)=O)ccc32)CC1
[1]
  EC50: 1400 nM
[2]
  logD: 4.1

## CC(C)(C)OC(=O)N1CCC(CCCC(=O)N2CCc3cc(S(C)(=O)=O)ccc32)CC1
[1]
  EC50: 120 nM
[2]
  logD: 2.9

## CC(C)OC(=O)N1CCC(Oc2ccnc(N3CCc4cc(S(C)(=O)=O)ccc43)n2)CC1
[1]
  EC50: 8800 nM
[2]
  logD: 3.5

## CC(C)(C)OC(=O)N1CCC(C(O)COC(=O)N2CCc3cc(S(C)(=O)=O)ccc32)CC1 (racemic)
[1]
  EC50: 2400 nM
[2]
  logD: 2.1

## CC(C)(C)OC(=O)N1CCC(n2ccc3c(N4CCc5cc(S(C)(=O)=O)ccc54)ncnc32)CC1
[1]
  EC50: 16 nM

## CC(C)(C)OC(=O)N1CCC(CCOC(=O)N2CCc3c2ccc(S(C)(=O)=O)c3Cl)CC1
[1]
  EC50: 530 nM
[2]
  logD: 3.6
[3]
  solubility: 0.21 µg/mL (≈ 0.431 µM)

## CCc1cnc(N2CCC(C(C)COC(=O)N3CCc4cc(S(C)(=O)=O)cc(F)c43)CC2)nc1 (racemic)
Rattus norvegicus [6]
  Activity: tde
[1]
  EC50: 3.9 nM
[2]
  logD: 3.6
[3]
  solubility: 3.8 µg/mL (≈ 7.75 µM)
Rattus norvegicus [7]
  Activity: tde
